Patent US6780887B1, “Anti-ischemic compounds” (Societe de Conseils de Recherches et d'Applications …, priority 1999, dated 2004)
Entries after “also recorded” stand apart in the source; their conditions may differ.

Key:
[1] = test system: purified mitochondria obtained from rat livers; test: In vitro mitochondrial respiration (stages III and IV, RCR) of purified mitochondria preincubated with compounds; assay type: biochemical; settings: for RCR increase (*): in % relative to the control brought to 100%; for Concentration (optimum concentration at which the effect was observed): RCR increase; for Concentration of maximum/optimal effect on RCR (optimal concentration in pre-incubation): rat liver mitochondria preincubated with compound; for Effect on mitochondria RCR (in words) / Effect on respiration stage IV (in words): in vitro
Description: The mitochondria are isolated according to the method described by Nowicki et al., J. of Cerebral Blood Flow and Metabolism 2, p. […] The mitochondrial respiration is measured by an oxygen electrode connected to a recorder. The RCR represents the respiratory control, and represents the ratio of the oxygen consumption in the presence of an endogenous substrate (glutamate/malate) to the consumption after ADP phosphorylation in ATP.
The RCR has been subsequently calculated.

heart mitochondria = test: In vivo effect on heart mitochondria RCR after treatment of rats per os for one day; parameters: species or system rat
Description: The following day, the rats are sacrificed and their mitochondria are isolated from the heart. Their respiratory activity is measured every 15 minutes for the 75 minutes following the isolation procedure.

[2] = test system: neutrophil adherence to the endothelial cells; test: Neutrophil adherence to endothelial cells incubated under hypoxia; assay type: cell-based, human; settings: 10^−8 mol/l
Description: After incubation, the cells are co-incubated with a non stimulated human neutrophil suspension.

[3] = Stability in human plasma (GC); assay type: in vitro ADME; settings: 24 hours, 37° C.
Description: The compounds of examples 1 and 2 have been submitted to stability tests in order to evaluate their behaviour when in contact with plasma after a 3 and 24 hour incubation at a temperature of 37° C. These tests have been performed using GC following the evolution of chromatograms of the different esters compared to an internal standard as a function of time.
The injection of GC/MF pure products has been performed in the following conditions:
injection temperature: 250° C.
initial temperature: 40° C.
final temperature: 250° C.
temperature gradient: 10° C./mn
The different compounds have been prepared as follows: 10 μl of pure compound have been dissolved in 100 μl plasma at a temperature of 37° C. The resulting solution is stirred. After a 3 or 24 hour period of time, 5 μl of internal standard (N-benzylamine) and 1 ml ether are added to the solution maintained at 37° C. The sample is centrifuged for 10 minutes at a rate of 13,000 rpm. 1 μl of the supernatant phase (ether phase) is injected in GC. The sample is then GC analyzed. […] No other peak optionally corresponding to metabolization products is observed.

hepatic mitochondria = test: In vivo effect on liver mitochondria RCR after treatment of rats per os for 5 days; parameters: species or system rat; settings: for Effect on respiration stage IV (in words): liver mitochondria
Description: Following the treatment, the rats are sacrificed. The mitochondria are isolated from the liver and their respiratory activity is measured every 15 minutes for the 75 minutes following the isolation procedure.

[4] = test system: endothelial cells of the human umbilical vein; test: Protection of ATP content in endothelial cells incubated under hypoxia; assay type: cell-based; settings: for Average maximum protection of the decrease in ATP content induced by hypoxia: endothelial cells
Description: This variability is inherent to the experimental model. Indeed, for each experiment, a different culture is used from different umbilical cord isolated cells and there is a behaviour variability of the cells from one cord to another.

Promyelocyte cells = test: Etoposide-induced apoptosis in promyelocyte cells; assay type: cell-based; settings: cells incubated with etoposide
Description: Promyelocyte cells are incubated in the presence of apoptosis-inducing agents like the etoposide, a type II topoisomerase inhibitor. After incubation, different parameters indicative of the apoptosis are detectable: caspase activation, cytochrome C release by the mitochondria, DNA fragmentation, etc.

[5] = 10^−7 M (optimum concentration)
[6] = 10^−6 M (optimum concentration)
[7] = endothelial cells under hypoxia

CCOC(=O)CN(C)C(=O)C1CCCCC1 [Ethyl N-methyl-N-cyclohexamido ethanoate, Ethyl N-methyl -N-cyclohexamido Ethanoate]
RCR increase (*) [1, 5]: 15% | Concentration (optimum concentration at which the effect was observed) ([1]; rat liver mitochondria): 10^−7 M

O=C(CC(=O)Nc1ccccc1)Nc1ccccc1 [N,N′-diphenylmalonamide, N-N′-diphenyl malonamide]
RCR increase (*) [1, 5]: 5% | Concentration (optimum concentration at which the effect was observed) ([1]; rat liver mitochondria): 10^−7 M

O=C(CC(=O)O[C@@H]1C=CCC1)O[C@@H]1C=CCC1 [di-(S)-cyclopenten-2-yl malonate, di-(S)-2-cyclopenten-2-yl malonate]
RCR increase (*) [1, 6]: 18% | Concentration (optimum concentration at which the effect was observed) ([1]; rat liver mitochondria): 10^−6 M

C=CCOC(=O)C12CC1COC2=O (centres unmarked) [example 2, 2-propenyl-3-Oxa-2-Oxobicyclo[3.1.0]-hexane-1-carboxylate]
Heart mitochondria RCR increase (heart mitochondria; one day treatment, 3.6 mg/kg): 56% | Maximum inhibition of hypoxia induced neutrophil adherence increase [2]: 71% | Optimal concentration in pre-incubation (mass concentration) [1]: 0.0183 µg/mL | Concentration of maximum/optimal effect on RCR (optimal concentration in pre-incubation) [1]: 10^−7 mol/l | Effect on mitochondria RCR (in words) ([1]; rat liver mitochondria): have an action on the RCR | Effect on respiration stage IV (in words) ([1]; rat liver mitochondria): decrease effect | Stability in human plasma (GC peak of compound) [3]: not found any more | Activity on liver mitochondria RCR (in words) (hepatic mitochondria; 5 days, 0.18 mg/kg): weakly active | Mitochondria RCR increase (maximum) (hepatic mitochondria; 5 days, 3.6 mg/kg, liver): 17% | Effect on respiration stage IV (in words) (hepatic mitochondria; 5 days): decrease | Average maximum protection of the decrease in ATP content induced by hypoxia ([4]; 10^−4 mol/l): 92.5% | Concentration at which ATP protection becomes negligible [4, 7]: 10^−6 mol/l

Dicyclopenten-2-yl malonate [example 1]
Heart mitochondria RCR increase (heart mitochondria; one-day treatment, 2.36 mg/kg): 41% | Concentration at which the RCR effect becomes negligible ([1]; rat liver mitochondria): 10^−9 mol/l | Concentration of maximum/optimal effect on RCR (optimal concentration in pre-incubation) [1]: 10^−6 mol/l | Effect on mitochondria RCR (in words) ([1]; rat liver mitochondria): have an action on the RCR; also recorded: significatively increases | Effect on respiration stage IV (in words) ([1]; rat liver mitochondria): strongly decreases | Stability in human plasma (GC peak of compound) [3]: still observed | Hepatic mitochondria RCR increase (hepatic mitochondria; 5 day treatment, 2.36 mg/kg): 25% | RCR versus control (in words) (hepatic mitochondria; 5 days, dose higher than 2.36 mg/kg): falls slightly below the control values | Effect on respiration stage IV (in words) (hepatic mitochondria; 5 days): clear decrease | Average maximum protection of the decrease in ATP content induced by hypoxia ([4]; 10^−4 mol/l to 10^−5 mol/l): 92.1% | Concentration at which ATP protection becomes negligible [4, 7]: 10^−8 mol/l | Protection of the decrease in ATP content induced by hypoxia (in words) [4, 7]: able to protect reproducibly | Apoptosis induction (in words) (Promyelocyte cells): apoptosis induction inhibition is observed | Caspase 3 activation (Promyelocyte cells): inhibited | Cytochrome C release by the mitochondria (Promyelocyte cells): inhibited | DNA fragmentation (Promyelocyte cells): inhibited

Ethyl 2,6-dimethyl-N-phenylamido Ethanoate
RCR increase (*) [1, 6]: 13% | Concentration (optimum concentration at which the effect was observed) ([1]; rat liver mitochondria): 10^−6 M

Ethyl N-phenylamido Ethanoate [Ethyl N-phenlyamido ethanoate]
RCR increase (*) [1, 6]: 6.6% | Concentration (optimum concentration at which the effect was observed) ([1]; rat liver mitochondria): 10^−6 M
